For 12 molecules, inhibition of growth and Observed efficacy results are on record in patent publication US11839214B2, “Fungicidal mixture comprising substituted pyridines” (BASF SE, priority 2017, dated 2023).

Where two headings read alike, the source gives them in different places.

What all share (assay type): cell-based
The test system of one experiment is Septoria tritici. Put plainly: Activity against leaf blotch on wheat caused by Septoria tritici (microtiterplate test).
A further experiment concerns Sclerotinia sclerotiorum. The experiment in a line: Activity against Sclerotinia sclerotiorum in the microtiterplate test.
A further experiment deals with Botrytis cinerea. The experiment in a line: Activity against the grey mold Botrytis cinerea in the microtiterplate test. As to conditions: single active compound.
The test system of another experiment is Pyricularia oryzae. Put plainly: microbe, parasite or virus in culture. Conditions: for Observed efficacy: single active compound, 1 ppm.
The mark [1] stands for this setting: Zymoseptoria tritici, 168 h, single active, 1 ppm, read-out: Observed efficacy.
[2] abbreviates: Zymoseptoria tritici, 168 h, single active, read-out: Observed efficacy.
[3] abbreviates: Sclerotinia sclerotiorum, 168 h, single active compound, read-out: Observed efficacy.
The mark [4] stands for this setting: Sclerotinia sclerotiorum, 168 h, single active compound, 4 ppm, read-out: Observed efficacy.
Setting [5] is: Botrytis cinerea, 168 h, 1 ppm, read-out: Observed efficacy.
The mark [6] stands for this setting: Botrytis cinerea, 168 h, read-out: Observed efficacy.
Where [7] appears, read: Zymoseptoria tritici, 168 h, single active, 0.25 ppm, read-out: Observed efficacy.
Setting [8] is: Pyricularia oryzae, 168 h, read-out: Observed efficacy.
[9] abbreviates: Botrytis cinerea, 168 h, 0.25 ppm, read-out: Observed efficacy.

Turning to `Cc1cc(C)nc(Nc2ccccc2)n1` [Pyrimethanil, pyrimethanil], the inhibition of growth at 1 ppm is 6% in the experiment on Septoria tritici (setting [1]), 15% with Sclerotinia sclerotiorum (setting [3]) and 50% in the experiment on Botrytis cinerea (setting [5]). Also, in the experiment with Septoria tritici (setting [2]), the inhibition of growth at 16 ppm is 21%. For the same molecule, the figures for the inhibition of growth at 4 ppm in the experiment with Sclerotinia sclerotiorum (setting [4]) and in the experiment with Botrytis cinerea (setting [6]) were 21% and 72%, respectively.
For `CC1(C)N=C(c2cnc3ccccc3c2)c2ccccc2C1(F)F` [Quinofumelin, quinofumelin], the Observed efficacy was determined as 41% in the experiment with Septoria tritici (single active, 1 ppm); 65% with Sclerotinia sclerotiorum (single active compound, 4 ppm); 34% in the experiment on Pyricularia oryzae; 30% in the experiment on Botrytis cinerea (1 ppm).
Consider `Cc1cc(C2=NC(C)(C)C(F)(F)c3ccccc32)cnc1C(F)F` [Compound 1-2], for which the inhibition of growth at 0.25 ppm was determined as 12% in the experiment with Septoria tritici (setting [7]) and 20% with Pyricularia oryzae (setting [8]). For the same molecule, the inhibition of growth at 1 ppm with Septoria tritici (setting [1]) is 6%; in the experiment on Pyricularia oryzae (setting [8]) it was 32%; with Botrytis cinerea (setting [5]) it was 15%. Moreover, the inhibition of growth at 4 ppm in the experiment with Septoria tritici (setting [2]) was found to be 29%; in the experiment with Sclerotinia sclerotiorum (setting [4]) it was 16%; in the experiment on Botrytis cinerea (setting [6]) it was 19%. In the experiment with Pyricularia oryzae (setting [8]), the inhibition of growth at 0.063 ppm stood at 14%. Also, the inhibition of growth at 16 ppm with Botrytis cinerea (setting [6]) amounted to 31%.
For the molecule `N#Cc1c[nH]cc1-c1cccc2c1OC(F)(F)O2` [Fludioxonil, fludioxonil], the inhibition of growth at 0.25 ppm in the experiment with Septoria tritici (Zymoseptoria tritici, 168 h, read-out: Observed efficacy) is 10%. Moreover, the inhibition of growth at 0.016 ppm in the experiment on Sclerotinia sclerotiorum (Sclerotinia sclerotiorum, 168 h, read-out: Observed efficacy) was found to be 13%. Besides, in the experiment on Pyricularia oryzae (setting [8]), the inhibition of growth at 0.004 ppm was found to be 16%, the inhibition of growth at 0.016 ppm was 35% and the inhibition of growth at 0.063 ppm was found to be 40%.
For the molecule `CC(C)O/N=C(/CNC(=O)c1cn(C)nc1C(F)F)c1ncc(C#CC2CC2)cc1Cl` [Pyrapropyon, pyrapropoyne], in the experiment on Septoria tritici (setting [1]), the inhibition of growth at 1 ppm was determined as 42%. For the same molecule, the inhibition of growth at 4 ppm with Sclerotinia sclerotiorum (setting [4]) was found to be 55%; with Pyricularia oryzae (setting [8]), 1%; in the experiment with Botrytis cinerea (setting [6]) it was 35%. Moreover, the inhibition of growth at 16 ppm in the experiment on Pyricularia oryzae (setting [8]) was 4%; in the experiment on Botrytis cinerea (setting [6]), 71%.
With `Cc1ncc(C2=NC(C)(C)C(F)(F)c3ccccc32)cc1CF` [Compound 1-3], the inhibition of growth at 0.063 ppm with Septoria tritici (setting [2]) worked out at 11%. Further, the inhibition of growth at 0.25 ppm in the experiment with Septoria tritici (setting [7]) is 13%. The inhibition of growth at 1 ppm with Septoria tritici (setting [1]) turned out to be 9%; in the experiment with Sclerotinia sclerotiorum (setting [3]) it was 3%; in the experiment on Pyricularia oryzae (setting [8]), 26%; in the experiment with Botrytis cinerea (setting [5]), 6%. Also, the inhibition of growth at 4 ppm with Septoria tritici (setting [2]) was 13%; in the experiment on Sclerotinia sclerotiorum (setting [4]), 8%; in the experiment on Pyricularia oryzae (setting [8]) it was 52%; in the experiment on Botrytis cinerea (setting [6]) it was 9%. The inhibition of growth at 16 ppm in the experiment with Septoria tritici (setting [2]) turned out to be 34%; with Botrytis cinerea (setting [6]), 19%. The inhibition of growth at 0.025 ppm in the experiment with Pyricularia oryzae (setting [8]) is 20%.
Take `N#Cc1sc2c(=O)c3ccccc3c(=O)c=2sc1C#N` [Dithianon, dithianon]: the inhibition of growth at 0.063 ppm was 22% in the experiment on Septoria tritici (setting [2]) and 14% in the experiment with Pyricularia oryzae (setting [8]). Also, the inhibition of growth at 0.25 ppm came to 82% with Septoria tritici (setting [7]), 36% in the experiment on Pyricularia oryzae (setting [8]) and 4% in the experiment with Botrytis cinerea (setting [9]). In the experiment on Sclerotinia sclerotiorum (setting [3]), the inhibition of growth at 1 ppm came to 36%.
For the molecule `O=[N+]([O-])c1cc(C(F)(F)F)c(Cl)c([N+](=O)[O-])c1Nc1ncc(C(F)(F)F)cc1Cl` [Fluazinam, fluazinam], the inhibition of growth at 0.25 ppm in the experiment with Sclerotinia sclerotiorum (setting [3]) amounted to 58%. The inhibition of growth at 0.063 ppm in the experiment on Pyricularia oryzae (setting [8]) stood at 6%.
As to `COc1cc(C)c(C(=O)c2c(OC)ccc(Br)c2C)c(OC)c1OC` [Metrafenon, metrafenone], in the experiment on Septoria tritici (setting [2]), the inhibition of growth at 4 ppm was found to be 4% and the inhibition of growth at 16 ppm is 16%. Also, in the experiment with Pyricularia oryzae (setting [8]), the inhibition of growth at 1 ppm amounted to 2% and the inhibition of growth at 4 ppm turned out to be 7%. In the experiment on Botrytis cinerea (setting [6]), the inhibition of growth at 4 ppm stood at 3% and the inhibition of growth at 16 ppm stood at 18%.
For `CON=C(C(=O)OC)c1ccccc1CON=C(C)c1cccc(C(F)(F)F)c1` [Trifloxystrobin, trifloxystrobin], the inhibition of growth at 0.016 ppm in the experiment on Septoria tritici (Zymoseptoria tritici, 168 h, single active, 0.016 ppm, read-out: Observed efficacy) was 27%; with Pyricularia oryzae (setting [8]), 23%. Also, the inhibition of growth at 0.004 ppm in the experiment with Pyricularia oryzae (setting [8]) came to 8%. Further, the inhibition of growth at 0.063 ppm with Botrytis cinerea (Botrytis cinerea, 168 h, 0.063 ppm, read-out: Observed efficacy) worked out at 4%.
With `CC1CC(C)(C)c2c(F)ccc(NC(=O)c3cn(C)nc3C(F)F)c21` (centres unmarked) [Fluindapyr, fluindapyr], the Observed efficacy in the experiment on Septoria tritici (single active, 0.25 ppm) stood at 22%; in the experiment with Septoria tritici (single active, 1 ppm), 67%; in the experiment with Pyricularia oryzae it was 41%; in the experiment with Botrytis cinerea (0.25 ppm) it was 30%.
On to `Cc1cc(C2=NC(C)(C)C(F)(F)c3ccccc32)cnc1C` [Compound 1-1], for which the inhibition of growth at 1 ppm with Septoria tritici (setting [1]) amounted to 9%; in the experiment with Sclerotinia sclerotiorum (setting [3]), 7%; with Pyricularia oryzae (setting [8]), 24%; in the experiment with Botrytis cinerea (setting [5]), 13%. Besides, the inhibition of growth at 4 ppm in the experiment on Septoria tritici (setting [2]) stood at 18%; with Sclerotinia sclerotiorum (setting [4]), 10%; in the experiment with Pyricularia oryzae (setting [8]), 53%; in the experiment on Botrytis cinerea (setting [6]) it was 16%. Moreover, the inhibition of growth at 16 ppm came to 37% in the experiment on Septoria tritici (setting [2]); 32% in the experiment with Sclerotinia sclerotiorum (Sclerotinia sclerotiorum, 168 h, single active compound, 16 ppm, read-out: Observed efficacy); 19% in the experiment with Botrytis cinerea (setting [6]). For the same molecule, the results for the inhibition of growth at 0.25 ppm in the experiment on Sclerotinia sclerotiorum (setting [3]), with Pyricularia oryzae (setting [8]) and in the experiment with Botrytis cinerea (setting [9]) were 7%, 23% and 13%, respectively.
